Here are results for 16 compounds from patent US9163020B2, “Azaindole compounds, synthesis thereof, and methods of using the same” (Global Alliance for TB Drug Development, priority 2013, dated 2015).

Converted amounts (≈) assume the structure as drawn. Read-outs that look alike come from different tables or passages of the source.

One series can be described thus: in vitro. It is filed as in vitro ADME. The settings on record: pH 7.4; mouse microsomes; read-out: Mo micrsomal Clint. Here is the method:
1 μM compound was incubated with 1 mg/mL of microsomes (Pooled HLM/MLM with 20 mg/ml protein cone.) at 37° C. in 166 μL of buffer (100 mM phosphate buffer, pH-7.4) containing 2 mM NADPH solution. 20 μL of incubation mix was quenched with 4 volumes chilled acetonitrile at different time points i.e. 0, 2, 5, 10, 20 and 30 min in a fresh 96 well plate. The quench plate was centrifuged at 4000 rpm for 15 min. 30 μL of supernatant was diluted to 300 μL with 50% acetonitrile in water and substrate depletion was analyzed using LC-MS/MS.

The next series deals with hERG (Homo sapiens, UniProt Q12809).
Sequence of hERG (Q12809 whole entry): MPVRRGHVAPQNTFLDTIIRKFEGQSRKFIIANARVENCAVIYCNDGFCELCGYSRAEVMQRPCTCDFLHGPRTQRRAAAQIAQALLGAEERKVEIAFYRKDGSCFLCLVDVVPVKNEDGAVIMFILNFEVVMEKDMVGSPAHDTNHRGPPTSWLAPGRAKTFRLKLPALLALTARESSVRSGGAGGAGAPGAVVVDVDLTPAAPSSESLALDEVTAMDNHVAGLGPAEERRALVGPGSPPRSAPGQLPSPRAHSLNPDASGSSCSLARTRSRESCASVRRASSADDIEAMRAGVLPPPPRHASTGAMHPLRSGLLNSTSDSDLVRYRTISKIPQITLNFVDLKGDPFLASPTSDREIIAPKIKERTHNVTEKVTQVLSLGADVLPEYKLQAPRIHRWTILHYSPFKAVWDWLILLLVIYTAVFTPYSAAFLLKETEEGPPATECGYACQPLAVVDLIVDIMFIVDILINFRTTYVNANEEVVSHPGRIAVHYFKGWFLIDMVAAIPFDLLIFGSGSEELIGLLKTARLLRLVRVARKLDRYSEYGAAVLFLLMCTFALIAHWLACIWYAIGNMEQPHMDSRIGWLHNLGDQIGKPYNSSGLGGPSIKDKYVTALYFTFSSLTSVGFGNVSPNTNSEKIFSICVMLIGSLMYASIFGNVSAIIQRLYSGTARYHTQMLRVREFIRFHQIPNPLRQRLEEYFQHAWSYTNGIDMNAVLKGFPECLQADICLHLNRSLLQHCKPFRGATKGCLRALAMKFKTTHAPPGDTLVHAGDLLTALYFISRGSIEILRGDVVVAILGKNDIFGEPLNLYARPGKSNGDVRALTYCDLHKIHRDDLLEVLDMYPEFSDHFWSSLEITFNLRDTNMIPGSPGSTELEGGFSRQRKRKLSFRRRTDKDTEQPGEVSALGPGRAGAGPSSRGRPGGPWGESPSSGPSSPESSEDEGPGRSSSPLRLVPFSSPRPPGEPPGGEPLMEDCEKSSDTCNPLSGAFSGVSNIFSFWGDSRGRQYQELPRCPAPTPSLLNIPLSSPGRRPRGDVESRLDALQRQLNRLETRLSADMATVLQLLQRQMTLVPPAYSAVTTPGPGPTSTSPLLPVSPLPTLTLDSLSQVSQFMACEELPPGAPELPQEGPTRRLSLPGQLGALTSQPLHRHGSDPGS
Series [1] is classed as in vitro ADME. The settings on record: human, rat. As to the method:
1 μM compound was incubated with 1 mg/mL of microsomes (Pooled HLM/MLM with 20 mg/ml protein cone.) at 37° C. in 166 μL of buffer (100 mM phosphate buffer, pH-7.4) containing 2 mM NADPH solution. […] The quench plate was centrifuged at 4000 rpm for 15 min. 30 μL of supernatant was diluted to 300 μL with 50% acetonitrile in water and substrate depletion was analyzed using LC-MS/MS.

The nature of series [2]: in vivo. The settings on record: BALB/c, mouse, po.
Series [3] in a line: in vivo. The settings on record: BALB/c, mouse, po, 50 mg/kg.
Series [4] in a line: in vivo. The note with it: Wistar, rat, in vivo, po, 30 mg/kg. As to the method: PK of azaindoles compounds was performed in mice (healthy and infected) and rats. Mice were pretreated with 100 mg/kg ABT two hours prior to the compound administration. PK data from healthy mice was used to design the dosing regimen for the efficacy study while, information from infected mice was used for the PK-PD analysis.
All oral administration was performed as suspensions in 0.5% HPMC, and 0.1% Tween 80. […] All blood samples were collected via sapheneous vein into Microvette CB300® (Starstedt, Germany) tubes coated with Lithium-Heparin, and plasma was prepared from the collected blood by centrifugation.
One mg/mL stock solution of each compound was prepared in Dimethylsulfoxide (DMSO) and diluted two-fold with acetonitrile. A sixteen point calibration curve was utilized for each analyte, and the standard curves ranged from 0.001 to 40 μg/mL. Plasma/BAL samples were precipitated by adding chilled acetonitrile (1:10 v/v) containing carbamazepine as internal standard (250 ng/mL). Samples were vortexed, and centrifuged at 4000 rpm for 30 min at 10° C. The resulting supernatant was mixed with mobile phase (50% acetonitrile in water with 0.1% formic acid). […] of sample was injected on to a liquid chromatographic system (Waters-ACQUTY UPLC) coupled to triple quadrupole mass spectrometer (Waters-ACQUTY-TQD; MS/MS). Samples were acquired in positive ion mode and detected by multiple reaction monitoring (MRM). Concentrations of the analyte were determined from a standard curve obtained by plotting known concentrations of the analyte against peak area ratios (analyte/internal standard peak response).
PK analysis of the plasma concentration-time relationships were performed with WinNonlin Phoenix Software (version 6.2; Pharsight, USA). […] The maximum concentration of drug in plasma (Cmax), time to Cmax (Tmax), elimination half-life (t1/2), and AUC from time zero to infinity (AUC0-∞) were estimated. […] Minimum of three sample points in the terminal slope were used to estimate to calculate half-life.

The procedure of series [5]:
Viability of cryopreserved hepatocytes was determined using trypan blue and the cell conc. was adjusted to 10^6 cells per mL with buffer (KHB buffer). 1 μM compound (in Acetonitrile; 0.01% DMSO) was incubated with 500 μL of hepatocyte cells (1 million cells per mL) in a NUNC plate. […] Supernatants were analyzed using LC-MS/MS for substrate depletion.

The nature of series [6]: in vivo. The note with it: male, Wistar, rat, po, 100 mg/kg.
The subject of series [7] is Mycobacterium tuberculosis (Mtb) H37Rv ATCC 27294. As to the kind of experiment: microbe, parasite or virus in culture. It is filed as cell-based. The note with it: Mycobacterium tuberculosis.
In series [8] the test system is A549 human lung carcinoma cells. It is filed as cell-based. As to the method:
The in vitro cytotoxicity of compounds were measured against A549 human lung carcinoma cells as describedin Eakin et. al (2012). Briefly, A549 cells (ATCC) were grown in RPMI medium (GIBCO-BRL) containing 10% heat-inactivated fetal bovine serum (GIBCO-BRL) and 1 mM L-glutamine (GIBCO-BRL) at a density of 1,000 cells/well. After incubation of the cells with compound in a CO2 atmosphere at 37° C. for 72 hours, cell viability was determined following addition of […] of resazurin solution (Sigma), by measuring fluorescence (excitation at 535 nm, emission at 590 nm) using a fluorimeter.

The subject of series [9] is Mycobacterium tuberculosis (Mtb) H37Rv. The experiment in a line: Mtb minimal bactericidal concentration (MBC), plating from MIC plates. It is filed as cell-based. The note with it: Table 5, read-out: Mtb H37Rv MBC. Here is the method: Aliquots from sample wells (MIC and higher) from the MIC plates were diluted 1:10 and plated on 7H10 agar plates. Plates were incubated at 37° C. for 3-4 weeks, CFU was enumerated.

Series [10] deals with hypoxia induced non-replicating persistent (NRP) Mtb cells. As to the kind of experiment: Activity against hypoxia induced non-replicating persistent (NRP) Mtb (HBC, Wayne model). It is filed as cell-based, Mycobacterium tuberculosis. The note with it: for Mtb H37Rv HBC: Table 5.
The mark [11] stands for this setting: Table 5, read-out: Mtb H37Rv MIC.

Experimental for hERG: Compounds were tested on voltage-gated ion channels using the medium-throughput electrophysiology IonWorks™ device. […] For carrying out the experiment, a boat in the “Cells” position of the IonWorks™ instrument was loaded with the cell suspension, and a 96-well PBS destination plate was placed in the “Plate 1” position. A 384-well PatchPlate™ was placed in the IonWorks™ plenum and held in position using the plenum clamp. From this point the experiment progress is automated and ultimately reports a non-cumulative concentration-effect curve for test compound.

As for `COc1ncnc(Cn2cc(C(=O)NCC3CC3)c3ncccc32)c1C` [Compound 4, N-(cyclopropylmethyl)-1-((6-methoxy-5-methylpyrimidin-4-yl)methyl)-1H-pyrrolo[3,2-b]pyridine-3-carboxamide], in the series “in vitro”, the microsomal CLint amounted to 180 µL/min/mg. Further, the hERG on hERG was greater than 33 µM. Also, the predicted clearance in series [1] is on record as 4-18 % of liver blood flow (% LBF). For the same compound, in “in vivo [2]”, the AUC (commonly the area under the concentration-time curve, a measure of exposure) lay in the range of 200 to 700 µM·h. Further, in “in vivo [2]” (30 mg/kg), the total exposure AUC(0-inf) (usually total exposure, with the tail of the curve extrapolated) was found to be 227 ± 28.9 µM·h; the concentration peaked (Cmax) at 17.4 ± 1.76 µM; the Tmax (commonly the time at which the peak concentration occurs) turned out to be 5.67 ± 2.31 h; the half-life (usually how long it takes for the measured level to halve) is 3.85 ± 0.54 h. In addition, in “in vivo [3]”, the total exposure AUC(0-inf) was 200 ± 101 µM·h, the highest level (Cmax) was 38.9 ± 15.2 µM, the Tmax worked out at 4.5 ± 2.78 h and the half-life was 2.23 ± 0.35 h. In “in vivo [4]”, the AUC(0-inf) is 22.9 µM·h; the Cmax (as a rule, the highest concentration seen after dosing) amounted to 2.35 µM; the Tmax was determined as 3 h; the half-life was 3.64 h. Further, in series [5], the “Human CLpred hepatocytes (% LBF)” value was 4.3 % LBF and the “Rat CLpred hepatocytes (% LBF)” value was 13 % LBF.

Consider `COc1ncnc(Cn2cc(C(=O)NCC(F)F)c3ncc(C)cc32)c1C` [Compound 30, N-(2,2-difluoroethyl)-1-((6-methoxy-5-methylpyrimidin-4-yl)methyl)-6-methyl-1H-pyrrolo[3,2-b]pyridine-3-carboxamide], for which, in the series “in vivo [6]”, the total exposure AUC(0-inf) was determined as 23.3 ± 11.7 µM·h, the maximum concentration (Cmax) came to 3.4 ± 2 µM, the time of peak concentration (Tmax) was 3.3 ± 2.3 h and the half-life was 3.3 ± 1.1 h. Also, the MIC in series [7] (Table 1, read-out: Mtb MIC) was less than 0.391 µM.

Consider `Cc1ccc(Cn2cc(C(=O)NCCF)c3ncccc32)c(C)c1` [Compound 31, 1-(2,4-dimethylbenzyl)-N-(2-fluoroethyl)-1H-pyrrolo[3,2-b]pyridine-3-carboxamide], for which the “MMIC (A549)” value in [8] (human, 72 h) was greater than 82 µM. Besides, the MIC in series [7] (Table 1, read-out: Mtb MIC) is 1.56 µM (≈ 0.508 µg/mL); in series [7] (setting [11]), 1.56 to 3.12 µM (≈ 0.508 to 1.02 µg/mL). The minimal bactericidal concentration (MBC) (commonly the smallest concentration meeting the test's criterion for killing) in series [9] was 3.12 to 6.25 µM (≈ 1.02 to 2.03 µg/mL). In addition, the “Mtb H37Rv HBC” value in [10] was 12.5 to 25 µM.

In the case of `COc1cccc(F)c1Cn1cc(C(=O)NCC2CC2)c2ncccc21` [Compound 32, N-(cyclopropylmethyl)-1-(2-fluoro-6-methoxybenzyl)-1H-pyrrolo[3,2-b]pyridine-3-carboxamide], the “MMIC (A549)” value in series [8] (Table 5) was greater than 100 µM. Besides, the MIC in [7] (Table 1, read-out: Mtb MIC) is 1.56 µM (≈ 0.551 µg/mL); in [7] (setting [11]), 1.56 to 3.12 µM (≈ 0.551 to 1.1 µg/mL). The minimal bactericidal concentration (MBC) in series [9] fell in the range of 1.56 to 6.25 µM (≈ 0.551 to 2.21 µg/mL). In addition, the “Mtb H37Rv HBC” value in series [10] is greater than 200 µM.

As for `Cc1cnc2c(C(=O)NCCO)cn(Cc3ncnc(N(C)C)c3C)c2c1` [Compound 34, 1-((6-(dimethylamino)-5-methylpyrimidin-4-yl)methyl)-N-(2-hydroxyethyl)-6-methyl-1H-pyrrolo[3,2-b]pyridine-3-carboxamide], in “in vivo [6]”, the AUC(0-inf) is 166 ± 43.9 µM·h, the Cmax was 31.5 ± 3 µM, the Tmax was found to be 2 h and the half-life was 4.6 h. The MIC in [7] (Table 1, read-out: Mtb MIC) is less than 0.39 µM.

`COc1cnc2c(C(=O)NCC(F)F)cn(Cc3ncnc(OC)c3C)c2c1` [Compound 37, N-(2,2-difluoroethyl)-6-methoxy-1-((6-methoxy-5-methylpyrimidin-4-yl)methyl)-1H-pyrrolo[3,2-b]pyridine-3-carboxamide]: the MIC in series [7] (Table 1, read-out: Mtb MIC) was less than 0.39 µM.

`COc1cnc2c(C(=O)NCCO)cn(Cc3ncnc(OC)c3C)c2c1` [Compound 38, N-(2-hydroxyethyl)-6-methoxy-1-((6-methoxy-5-methylpyrimidin-4-yl)methyl)-1H-pyrrolo[3,2-b]pyridine-3-carboxamide]: the MIC in [7] (Table 1, read-out: Mtb MIC) came out at 0.78 µM (≈ 0.29 µg/mL).

`COc1cnc2c(C(=O)NCCF)cn(Cc3ncnc(N(C)C)c3C)c2c1` [Compound 39, 1-((6-(Dimethylamino)-5-methylpyrimidin-4-yl)methyl)-N-(2-fluoroethyl)-6-methoxy-1H-pyrrolo[3,2-b]pyridine-3-carboxamide]: in series [7] (Table 1, read-out: Mtb MIC), the MIC is less than 0.39 µM.

For `COc1cnc2c(C(=O)NCC(F)F)cn(Cc3ncnc(N(C)C)c3C)c2c1` [Compound 40, N-(2,2-Difluoroethyl)-1-((6-(dimethylamino)-5-methylpyrimidin-4-yl)methyl)-6-methoxy-1H-pyrrolo[3,2-b]pyridine-3-carboxamide], in [7] (Table 1, read-out: Mtb MIC), the MIC is less than 0.39 µM.

In the case of `COc1cnc2c(C(=O)NCCO)cn(Cc3ncnc(N(C)C)c3C)c2c1` [Compound 41, 1-((6-(Dimethylamino)-5-methylpyrimidin-4-yl)methyl)-N-(2-hydroxyethyl)-6-methoxy-1H-pyrrolo[3,2-b]pyridine-3-carboxamide], the MIC in [7] (Table 1, read-out: Mtb MIC) was less than 0.39 µM.

For `COc1cnc2c(C(=O)NCCF)cn(Cc3ncnc(OC(F)F)c3C)c2c1` [Compound 42, 1-((6-(Difluoromethoxy)-5-methylpyrimidin-4-yl)methyl)-N-(2-fluoroethyl)-6-methoxy-1H-pyrrolo[3,2-b]pyridine-3-carboxamide], in series [7] (Table 1, read-out: Mtb MIC), the MIC is less than 0.39 µM.

`COc1cnc2c(C(=O)NCC(F)F)cn(Cc3ncnc(OC(F)F)c3C)c2c1` [Compound 43, N-(2,2-Difluoroethyl)-1-((6-(difluoromethoxy)-5-methylpyrimidin-4-yl)methyl)-6-methoxy-1H-pyrrolo[3,2-b]pyridine-3-carboxamide]: the MIC in series [7] (Table 1, read-out: Mtb MIC) was less than 0.39 µM.

Regarding `COc1cnc2c(C(=O)NCCO)cn(Cc3ncnc(OC(F)F)c3C)c2c1` [Compound 44, 1-((6-(difluoromethoxy)-5-methylpyrimidin-4-yl)methyl)-N-(2-hydroxyethyl)-6-methoxy-1H-pyrrolo[3,2-b]pyridine-3-carboxamide], the MIC in series [7] (Table 1, read-out: Mtb MIC) is 0.78 µM (≈ 0.318 µg/mL).

Turning to `Cc1cnc2c(C(=O)NCCF)cn(Cc3ncc(C)nc3C)c2c1` [Compound 45, 1-((3,5-dimethylpyrazin-2-yl)methyl)-N-(2-fluoroethyl)-6-methyl-1H-pyrrolo[3,2-b]pyridine-3-carboxamide], the MIC in [7] (Table 1, read-out: Mtb MIC) was less than 0.39 µM.

`Cc1cnc2c(C(=O)NCC(F)F)cn(Cc3ncc(C)nc3C)c2c1` [Compound 46, N-(2,2-difluoroethyl)-1-((3,5-dimethylpyrazin-2-yl)methyl)-6-methyl-1H-pyrrolo[3,2-b]pyridine-3-carboxamide]: the MIC in [7] (Table 1, read-out: Mtb MIC) was less than 0.39 µM.

Consider `NNC(=O)c1ccncc1` [Isoniazid], for which the “reduction in the bacterial CFU of NRP Mtb” value in [10] is “no reduction”.
